Data reported in ChEMBL document CHEMBL3885861, “Open TG-GATES”.

Species: Rattus norvegicus
Experiment: Open TG-GATES - Regimen: Single
Assay type: toxicity, organism-based, Sprague-Dawley
Parameters: regimen Single, gender Male, age 6 weeks
Details: in vivo, po, 500 mg/kg, route gavage, dose level High; for APTT / Bas / Eos / Fbg / Hb / Ht / Lym / MCH / MCHC / MCV / Mono / Neu / PT / Plat / RBC / Ret / WBC: tissue Blood; for KIDNEY_L / KIDNEY_R / KIDNEY_TOTAL: tissue Kidney; for LIVER: tissue Liver; for A/G / ALP / ALT / AST / BUN / CRE / Ca / Cl / DBIL / GLC / IP / K / LDH / Na / PL / RALB / TBIL / TC / TG / TP / gamma-GTP: tissue Plasma

Work on `CN1C(=O)CCS(=O)(=O)C1c1ccc(Cl)cc1` (configuration not stated) [CHLORMEZANONE] yielded a TERMINAL_BW (3 h) of 225.7 g, an APTT (3 h) of 17.2 s and a Bas (3 h) of 0%. It also gave an Eos (3 h) of 1%, a Fbg (3 h) of 308.4 mg/dL and a Hb (3 h) of 13.4 g/dL. It also gave a Ht (3 h) of 40.2%, a Lym (3 h) of 72.8% and an MCH (3 h) of 21.9 pg. The MCHC (3 h) was 33.4%, the MCV (3 h) was 65.4 fL and the Mono (3 h) was 3.8%. The Neu (3 h) was 21.8%, the PT (3 h) was 13.2 s and the Plat (3 h) was 113.8 x10_4/uL. For the same compound, the RBC (3 h) was 614.4 x10_4/ul, the Ret (3 h) was 8.6% and the WBC (3 h) was 42.6 x10_2/uL. For the same compound, the KIDNEY_L (3 h) was 1 g, the KIDNEY_R (3 h) was 1 g and the KIDNEY_TOTAL (3 h) was 2 g. The LIVER (3 h) was 9.8 g, the A/G (3 h) was 0.9 and the ALP (3 h) was 1556.6 IU/L. It also gave an ALT (3 h) of 41.2 IU/L, an AST (3 h) of 63.6 IU/L and a BUN (3 h) of 9.6 mg/dL. The CRE (3 h) was 0.1 mg/dL, the Ca (3 h) was 10.8 mg/dL and the Cl (3 h) was 102 meq/L. The DBIL (3 h) was 0.012 mg/dL, the GLC (3 h) was 212.4 mg/dL and the IP (3 h) was 10.3 mg/dL. For the same compound, the K (3 h) was 3.9 meq/L, the LDH (3 h) was 54.2 IU/L and the Na (3 h) was 140.8 meq/L. The PL (3 h) was 145 mg/dL, the RALB (3 h) was 2.5 g/dL and the TBIL (3 h) was 0.038 mg/dL. The TC (3 h) was 76.4 mg/dL, the TG (3 h) was 63.6 mg/dL and the TP (3 h) was 5.3 g/dL. It also gave a gamma-GTP (3 h) of 1 IU/L, a TERMINAL_BW (6 h) of 226.3 g and an APTT (6 h) of 16.7 s. For the same compound, the Bas (6 h) was 0%, the Eos (6 h) was 1% and the Fbg (6 h) was 340.6 mg/dL. It also gave a Hb (6 h) of 13.2 g/dL, a Ht (6 h) of 39.2% and a Lym (6 h) of 72.6%. For the same compound, the MCH (6 h) was 21.2 pg, the MCHC (6 h) was 33.8% and the MCV (6 h) was 62.7 fL. The Mono (6 h) was 2.6%, the Neu (6 h) was 23.4% and the PT (6 h) was 13.6 s. It also gave a Plat (6 h) of 111.4 x10_4/uL, an RBC (6 h) of 625.4 x10_4/ul and a Ret (6 h) of 8.1%. The WBC (6 h) was 28.5 x10_2/uL, the KIDNEY_L (6 h) was 0.9 g and the KIDNEY_R (6 h) was 0.9 g. It also gave a KIDNEY_TOTAL (6 h) of 1.9 g, an LIVER (6 h) of 9.9 g and an A/G (6 h) of 0.9. For the same compound, the ALP (6 h) was 1317.4 IU/L, the ALT (6 h) was 44 IU/L and the AST (6 h) was 66.8 IU/L. For the same compound, the BUN (6 h) was 8 mg/dL, the CRE (6 h) was 0.1 mg/dL and the Ca (6 h) was 10.8 mg/dL. The Cl (6 h) was 101.2 meq/L, the DBIL (6 h) was 0.006 mg/dL and the GLC (6 h) was 218.4 mg/dL. For the same compound, the IP (6 h) was 10.6 mg/dL, the K (6 h) was 3.6 meq/L and the LDH (6 h) was 56.4 IU/L. For the same compound, the Na (6 h) was 139.6 meq/L, the PL (6 h) was 160 mg/dL and the RALB (6 h) was 2.5 g/dL. The TBIL (6 h) was 0.03 mg/dL, the TC (6 h) was 93.2 mg/dL and the TG (6 h) was 39.6 mg/dL. For the same compound, the TP (6 h) was 5.4 g/dL, the gamma-GTP (6 h) was 1 IU/L and the TERMINAL_BW (9 h) was 229 g. For the same compound, the APTT (9 h) was 16.4 s, the Bas (9 h) was 0% and the Eos (9 h) was 0.6%. For the same compound, the Fbg (9 h) was 317.8 mg/dL, the Hb (9 h) was 13.4 g/dL and the Ht (9 h) was 39.2%. For the same compound, the Lym (9 h) was 68.8%, the MCH (9 h) was 21.9 pg and the MCHC (9 h) was 34.2%. It also gave an MCV (9 h) of 64 fL, a Mono (9 h) of 2.8% and a Neu (9 h) of 27.6%. It also gave a PT (9 h) of 13.6 s, a Plat (9 h) of 127.7 x10_4/uL and an RBC (9 h) of 613 x10_4/ul. For the same compound, the Ret (9 h) was 8.1%, the WBC (9 h) was 40.7 x10_2/uL and the KIDNEY_L (9 h) was 1 g. The KIDNEY_R (9 h) was 1 g, the KIDNEY_TOTAL (9 h) was 1.9 g and the LIVER (9 h) was 10.1 g. It also gave an A/G (9 h) of 0.9, an ALP (9 h) of 1555.8 IU/L and an ALT (9 h) of 39.8 IU/L. It also gave an AST (9 h) of 66 IU/L, a BUN (9 h) of 10 mg/dL and a CRE (9 h) of 0.1 mg/dL. The Ca (9 h) was 11 mg/dL, the Cl (9 h) was 100.4 meq/L and the DBIL (9 h) was 0.014 mg/dL. The GLC (9 h) was 255.4 mg/dL, the IP (9 h) was 10.3 mg/dL and the K (9 h) was 3.8 meq/L. It also gave an LDH (9 h) of 66.4 IU/L, a Na (9 h) of 139 meq/L and a PL (9 h) of 165.8 mg/dL. It also gave an RALB (9 h) of 2.6 g/dL, a TBIL (9 h) of 0.034 mg/dL and a TC (9 h) of 90.6 mg/dL. For the same compound, the TG (9 h) was 89.8 mg/dL, the TP (9 h) was 5.5 g/dL and the gamma-GTP (9 h) was 1.2 IU/L. For the same compound, the TERMINAL_BW (24 h) was 214.2 g, the APTT (24 h) was 21.3 s and the Bas (24 h) was 0%. It also gave an Eos (24 h) of 0.6%, a Fbg (24 h) of 258.6 mg/dL and a Hb (24 h) of 14.2 g/dL. For the same compound, the Ht (24 h) was 40.4%, the Lym (24 h) was 73.4% and the MCH (24 h) was 21.7 pg. The MCHC (24 h) was 35.2%, the MCV (24 h) was 61.9 fL and the Mono (24 h) was 4%. The Neu (24 h) was 21.8%, the PT (24 h) was 14.3 s and the Plat (24 h) was 121 x10_4/uL. It also gave an RBC (24 h) of 653.6 x10_4/ul, a Ret (24 h) of 7.3% and a WBC (24 h) of 73.2 x10_2/uL. The KIDNEY_L (24 h) was 0.9 g, the KIDNEY_R (24 h) was 0.9 g and the KIDNEY_TOTAL (24 h) was 1.9 g. The LIVER (24 h) was 9.7 g, the A/G (24 h) was 0.8 and the ALP (24 h) was 1746 IU/L. It also gave an ALT (24 h) of 46.2 IU/L, an AST (24 h) of 89.6 IU/L and a BUN (24 h) of 14.2 mg/dL. The CRE (24 h) was 0.2 mg/dL, the Ca (24 h) was 11.2 mg/dL and the Cl (24 h) was 104.6 meq/L. The DBIL (24 h) was 0.048 mg/dL, the GLC (24 h) was 193.2 mg/dL and the IP (24 h) was 8 mg/dL. For the same compound, the K (24 h) was 3.9 meq/L, the LDH (24 h) was 113 IU/L and the Na (24 h) was 142 meq/L. It also gave a PL (24 h) of 146.2 mg/dL, an RALB (24 h) of 2.6 g/dL and a TBIL (24 h) of 0.058 mg/dL. For the same compound, the TC (24 h) was 69.6 mg/dL, the TG (24 h) was 239.2 mg/dL and the TP (24 h) was 5.8 g/dL. For the same compound, the gamma-GTP (24 h) was 1 IU/L.
